Laboratory results from ChEMBL document CHEMBL1144896 (2003).

Experiments:
BJ [1] = assay: hTERT-SEAP (Human telomerase reverse transcriptase-SEAP) activity in immortalized hTERT-BJI at 2.2 uM concentration and level of cell viability determined in MTT assay; assay type: functional
BJ [2] = assay: Compound was tested for cytomegalovirus or (pPCMV-SEAP) activity in immortalized hTERT-BJ1 at 2.2 uM concentration; assay type: functional, Homo sapiens
BJ [3] = assay: Compound was tested for cytomegalovirus or (pPCMV-SEAP) activity in immortalized hTERT-BJ1 at 22 uM concentration; assay type: functional, Homo sapiens
BJ [4] = assay: Compound was tested for cytomegalovirus or (pPCMV-SEAP) activity in immortalized hTERT-BJ1 at 220 uM concentration; assay type: functional, Homo sapiens
BJ [5] = assay: Compound was tested for human telomerase reverse transcriptase-SEAP (hTERT-SEAP) activity in immortalized hTERT-BJI at 2.2 uM concentration; assay type: functional
BJ [6] = assay: Compound was tested for human telomerase reverse transcriptase-SEAP (hTERT-SEAP) activity in immortalized hTERT-BJI at 22 uM concentration; assay type: functional
BJ [7] = assay: Compound was tested for human telomerase reverse transcriptase-SEAP (hTERT-SEAP) activity in immortalized hTERT-BJI at 220.0 uM concentration; assay type: functional
BJ [8] = assay: hTERT-SEAP (Human telomerase reverse transcriptase-SEAP) activity in immortalized hTERT-BJI at 22 uM concentration and level of cell viability determined in MTT assay; assay type: functional
BJ [9] = assay: hTERT-SEAP (Human telomerase reverse transcriptase-SEAP) activity in immortalized hTERT-BJI at 220.0 uM concentration and level of cell viability determined in MTT assay; assay type: functional
BJ [10] = assay: pPCMV-SEAP (cytomegalovirus-SEAP) activity in immortalized hTERT-BJ1 at 220 uM concentration and level of cell viability determined in MTT assay; assay type: functional, Homo sapiens
BJ [11] = assay: pPCMV-SEAP (cytomegalovirus-SEAP) activity in immortalized hTERT-BJ1 at 2.2 uM concentration and level of cell viability determined in MTT assay; assay type: functional, Homo sapiens
BJ [12] = assay: pPCMV-SEAP (cytomegalovirus-SEAP) activity in immortalized hTERT-BJ1 at 22 uM concentration and level of cell viability determined in MTT assay; assay type: functional, Homo sapiens
NCI-H1299 [13] = assay: hTERT-SEAP (Human telomerase reverse transcriptase-SEAP) activity in non-small cell lung cancer H1299 cell at 22 uM concentration and level of cell viability determined in MTT assay; assay type: functional
NCI-H1299 [14] = assay: hTERT-SEAP (Human telomerase reverse transcriptase-SEAP) activity in non-small cell lung cancer H1299 cell at 220.0 uM concentration and level of cell viability determined in MTT assay; assay type: functional
NCI-H1299 [15] = assay: Compound was tested for human telomerase reverse transcriptase-SEAP (hTERT-SEAP) activity in non-small cell lung cancer H1299 cell at 22 uM concentration; assay type: functional
NCI-H1299 [16] = assay: Compound was tested for human telomerase reverse transcriptase-SEAP (hTERT-SEAP) activity in non-small cell lung cancer H1299 cell at 220.0 uM concentration; assay type: functional
NCI-H1299 [17] = assay: Compound was tested for human telomerase reverse transcriptase-SEAP (hTERT-SEAP) activity in non-small cell lung cancer H1299 cell at 2.2 uM concentration; assay type: functional
NCI-H1299 [18] = assay: hTERT-SEAP (Human telomerase reverse transcriptase-SEAP) activity in non-small cell lung cancer H1299 cell at 2.2 uM concentration and level of cell viability determined in MTT assay; assay type: functional
BJ [19] = assay: hTERT-SEAP (Human telomerase reverse transcriptase-SEAP) activity in immortalized hTERT-BJI at 2.8 uM concentration and level of cell viability determined in MTT assay; assay type: functional
BJ [20] = assay: hTERT-SEAP (Human telomerase reverse transcriptase-SEAP) activity in immortalized hTERT-BJI at 28.0 uM concentration and level of cell viability determined in MTT assay; assay type: functional
BJ [21] = assay: hTERT-SEAP (Human telomerase reverse transcriptase-SEAP) activity in immortalized hTERT-BJI at 280.0 uM concentration and level of cell viability determined in MTT assay; assay type: functional
BJ [22] = assay: Compound was tested for human telomerase reverse transcriptase-SEAP (hTERT-SEAP) activity in immortalized hTERT-BJI at 28.0 uM concentration; assay type: functional
BJ [23] = assay: Compound was tested for human telomerase reverse transcriptase-SEAP (hTERT-SEAP) activity in immortalized hTERT-BJI at 280.0 uM concentration; assay type: functional
BJ [24] = assay: Compound was tested for human telomerase reverse transcriptase-SEAP (hTERT-SEAP) activity in immortalized hTERT-BJI at 2.8 uM concentration; assay type: functional
NCI-H1299 [25] = assay: hTERT-SEAP (Human telomerase reverse transcriptase-SEAP) activity in non-small cell lung cancer H1299 cell at 2.8 uM concentration and level of cell viability determined in MTT assay; assay type: functional
NCI-H1299 [26] = assay: Compound was tested for human telomerase reverse transcriptase-SEAP (hTERT-SEAP) activity in non-small cell lung cancer H1299 cell at 28.0 uM concentration; assay type: functional
NCI-H1299 [27] = assay: Compound was tested for human telomerase reverse transcriptase-SEAP (hTERT-SEAP) activity in non-small cell lung cancer H1299 cell at 280.0 uM concentration; assay type: functional
NCI-H1299 [28] = assay: hTERT-SEAP (Human telomerase reverse transcriptase-SEAP) activity in non-small cell lung cancer H1299 cell at 28 uM concentration and level of cell viability determined in MTT assay; assay type: functional
NCI-H1299 [29] = assay: hTERT-SEAP (Human telomerase reverse transcriptase-SEAP) activity in non-small cell lung cancer H1299 cell at 280.0 uM concentration and level of cell viability determined in MTT assay; assay type: functional
NCI-H1299 [30] = assay: Compound was tested for human telomerase reverse transcriptase-SEAP (hTERT-SEAP) activity in non-small cell lung cancer H1299 cell at 2.8 uM concentration; assay type: functional
BJ [31] = assay: hTERT-SEAP (Human telomerase reverse transcriptase-SEAP) activity in immortalized hTERT-BJI at 19 uM concentration and level of cell viability determined in MTT assay; assay type: functional
BJ [32] = assay: hTERT-SEAP (Human telomerase reverse transcriptase-SEAP) activity in immortalized hTERT-BJI at 190.0 uM concentration and level of cell viability determined in MTT assay; assay type: functional
BJ [33] = assay: Compound was tested for human telomerase reverse transcriptase-SEAP (hTERT-SEAP) activity in immortalized hTERT-BJI at 19 uM concentration; assay type: functional
BJ [34] = assay: Compound was tested for human telomerase reverse transcriptase-SEAP (hTERT-SEAP) activity in immortalized hTERT-BJI at 190.0 uM concentration; assay type: functional
NCI-H1299 [35] = assay: Compound was tested for human telomerase reverse transcriptase-SEAP (hTERT-SEAP) activity in non-small cell lung cancer H1299 cell at 1.9 uM concentration; assay type: functional
NCI-H1299 [36] = assay: Compound was tested for human telomerase reverse transcriptase-SEAP (hTERT-SEAP) activity in non-small cell lung cancer H1299 cell at 19 uM concentration; assay type: functional
NCI-H1299 [37] = assay: hTERT-SEAP (Human telomerase reverse transcriptase-SEAP) activity in non-small cell lung cancer H1299 cell at 1.9 uM concentration and level of cell viability determined in MTT assay; assay type: functional
NCI-H1299 [38] = assay: hTERT-SEAP (Human telomerase reverse transcriptase-SEAP) activity in non-small cell lung cancer H1299 cell at 19 uM concentration and level of cell viability determined in MTT assay; assay type: functional
NCI-H1299 [39] = assay: Compound was tested for human telomerase reverse transcriptase-SEAP (hTERT-SEAP) activity in non-small cell lung cancer H1299 cell at 190.0 uM concentration; assay type: functional
NCI-H1299 [40] = assay: hTERT-SEAP (Human telomerase reverse transcriptase-SEAP) activity in non-small cell lung cancer H1299 cell at 190.0 uM concentration and level of cell viability determined in MTT assay; assay type: functional
NCI-H1299 [41] = assay: (§1) Compound was tested for human telomerase reverse transcriptase-SEAP (hTERT-SEAP) activity in non-small cell lung cancer H1299 cell at 2.3 uM concentration; assay type: functional
BJ [42] = assay: hTERT-SEAP (Human telomerase reverse transcriptase-SEAP) activity in immortalized hTERT-BJI at 230.0 uM concentration and level of cell viability determined in MTT assay; assay type: functional
BJ [43] = assay: Compound was tested for human telomerase reverse transcriptase-SEAP (hTERT-SEAP) activity in immortalized hTERT-BJI at 23 uM concentration; assay type: functional
BJ [44] = assay: Compound was tested for human telomerase reverse transcriptase-SEAP (hTERT-SEAP) activity in immortalized hTERT-BJI at 230.0 uM concentration; assay type: functional
BJ [45] = assay: hTERT-SEAP (Human telomerase reverse transcriptase-SEAP) activity in immortalized hTERT-BJI at 23 uM concentration and level of cell viability determined in MTT assay; assay type: functional
NCI-H1299 [46] = assay: (§2) hTERT-SEAP (Human telomerase reverse transcriptase-SEAP) activity in non-small cell lung cancer H1299 cell at 2.3 uM concentration and level of cell viability determined in MTT assay; assay type: functional
NCI-H1299 [47] = assay: hTERT-SEAP (Human telomerase reverse transcriptase-SEAP) activity in non-small cell lung cancer H1299 cell at 23 uM concentration and level of cell viability determined in MTT assay; assay type: functional
NCI-H1299 [48] = assay: hTERT-SEAP (Human telomerase reverse transcriptase-SEAP) activity in non-small cell lung cancer H1299 cell at 230.0 uM concentration and level of cell viability determined in MTT assay; assay type: functional
NCI-H1299 [49] = assay: Compound was tested for human telomerase reverse transcriptase-SEAP (hTERT-SEAP) activity in non-small cell lung cancer H1299 cell at 23 uM concentration; assay type: functional
NCI-H1299 [50] = assay: Compound was tested for human telomerase reverse transcriptase-SEAP (hTERT-SEAP) activity in non-small cell lung cancer H1299 cell at 230.0 uM concentration; assay type: functional
NCI-H1299 [51] = assay: as §2; assay type: functional; remark: listed apart in the source
NCI-H1299 [52] = assay: as §1; assay type: functional; remark: listed apart in the source

Nc1ccccc1Sc1cccc2c1C(=O)c1cccc(Sc3ccccc3N)c1C2=O
Relative viability (BJ [1]): 103%
Relative SEAP activity (BJ [2]): 103%
Relative SEAP activity (BJ [3]): 102%
Relative SEAP activity (BJ [4]): 122%
Relative SEAP activity (BJ [5]): 136%
Relative SEAP activity (BJ [6]): 141%
Relative SEAP activity (BJ [7]): 115%
Relative viability (BJ [8]): 107%
Relative viability (BJ [9]): 25%
Relative viability (BJ [10]): 48%
Relative viability (BJ [11]): 108%
Relative viability (BJ [12]): 109%
Relative viability (NCI-H1299 [13]): 50%
Relative viability (NCI-H1299 [14]): 14%
Relative SEAP activity (NCI-H1299 [15]): 96%
Relative SEAP activity (NCI-H1299 [16]): 59%
Relative SEAP activity (NCI-H1299 [17]): 108%
Relative viability (NCI-H1299 [18]): 94%

O=C1c2cccc(SCCO)c2C(=O)c2cccc(SCCO)c21
Relative viability (BJ [19]): 94%
Relative viability (BJ [20]): 49%
Relative viability (BJ [21]): 23%
Relative SEAP activity (BJ [22]): 98%
Relative SEAP activity (BJ [23]): 71%
Relative SEAP activity (BJ [24]): 104%
Relative viability (NCI-H1299 [25]): 54%
Relative SEAP activity (NCI-H1299 [26]): 76%
Relative SEAP activity (NCI-H1299 [27]): 45%
Relative viability (NCI-H1299 [28]): 29%
Relative viability (NCI-H1299 [29]): 36%
Relative SEAP activity (NCI-H1299 [30]): 97%

O=C(Oc1cccc2c1C(=O)c1cccc(OC(=O)c3ccccc3Cl)c1C2=O)c1ccccc1Cl
Relative viability (BJ [31]): 92%
Relative viability (BJ [32]): 40%
Relative SEAP activity (BJ [33]): 116%
Relative SEAP activity (BJ [34]): 97%
Relative SEAP activity (NCI-H1299 [35]): 93%
Relative SEAP activity (NCI-H1299 [36]): 101%
Relative viability (NCI-H1299 [37]): 74%
Relative viability (NCI-H1299 [38]): 34%
Relative SEAP activity (NCI-H1299 [39]): 97%
Relative viability (NCI-H1299 [40]): 30%

O=C(Oc1cccc2c1C(=O)c1cccc(OC(=O)c3ccc(Cl)cc3)c1C2=O)c1ccc(Cl)cc1
Relative viability (BJ [31]): 89%
Relative viability (BJ [32]): 48%
Relative SEAP activity (BJ [33]): 123%
Relative SEAP activity (BJ [34]): 107%
Relative SEAP activity (NCI-H1299 [35]): 106%
Relative SEAP activity (NCI-H1299 [36]): 106%
Relative viability (NCI-H1299 [37]): 91%
Relative viability (NCI-H1299 [38]): 57%
Relative SEAP activity (NCI-H1299 [39]): 97%
Relative viability (NCI-H1299 [40]): 31%

O=C1c2cccc(Sc3ncccn3)c2C(=O)c2cccc(Sc3ncccn3)c21
Relative SEAP activity (NCI-H1299 [41]): 137%
Relative viability (BJ [42]): 73%
Relative SEAP activity (BJ [43]): 125%
Relative SEAP activity (BJ [44]): 61%
Relative viability (BJ [45]): 103%
Relative viability (NCI-H1299 [46]): 104%
Relative viability (NCI-H1299 [47]): 99%
Relative viability (NCI-H1299 [48]): 44%
Relative SEAP activity (NCI-H1299 [49]): 110%
Relative SEAP activity (NCI-H1299 [50]): 49%
Relative viability (NCI-H1299 [51]): 107%
Relative SEAP activity (NCI-H1299 [52]): 105%
